Read-outs that look alike come from different tables or passages of the source.
How the values were obtained:
[1] = Stability in Liver Microsomes (mouse); format: in vitro ADME; details: 1 μM, 0.5 mg protein/mL, NADPH, 60 minutes, 37° C., pH 7.4
Description: (§1) Various compounds were tested for their stability in human, monkey, dog, rat, and mouse liver microsomes. At a final concentration of 1 μM, compounds were incubated with either human, monkey, dog, rat, or mouse liver microsomes (0.5 mg protein/mL) in the presence of an NADPH-solution for 60 minutes at 37° C., pH 7.4 in phosphate buffer. Incubations were performed in duplicate. Reactions were terminated by the addition of methanol. The incubation solution was vortexed and transferred into a 96-well plate. The plate was sealed and centrifuged at approximately 3500 rpm for approximately 10 minutes. After centrifugation, the plate was loaded into 96-well plate autosampler and analyzed by LC/MS. Values are reported as percent of compound remaining after 1 hour.

human MC-4R = biological target: T1, human MC-4R (Homo sapiens, UniProt P32245); test: Biological Assay: inhibition of AgRP functional interaction with MC-4R in presence of αMSH (cAMP production); format: cell-based; details: HEK293 cells expressing human MC-4R, AgRP83-132 and αMSH present
T1 construct: expressed in transfected cells
T1 sequence (P32245 whole entry): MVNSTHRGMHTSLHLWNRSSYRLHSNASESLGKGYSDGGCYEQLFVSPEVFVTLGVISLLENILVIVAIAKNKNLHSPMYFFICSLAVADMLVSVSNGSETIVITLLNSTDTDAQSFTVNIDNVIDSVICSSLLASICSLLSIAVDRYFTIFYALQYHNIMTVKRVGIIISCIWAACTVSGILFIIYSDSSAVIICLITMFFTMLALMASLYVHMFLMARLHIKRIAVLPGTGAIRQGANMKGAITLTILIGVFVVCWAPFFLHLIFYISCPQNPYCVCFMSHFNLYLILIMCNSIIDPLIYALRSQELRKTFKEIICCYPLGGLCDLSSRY
Description: The following method is illustrative of techniques that may be employed to measure the ability of the compounds of Formula (I) to functionally modulate the binding of AgRP to melanocortin receptors. In particular, the assay below measures the ability of compounds of Formula (I) or pharmaceutically acceptable salts thereof to functionally modulate the binding of AgRP to MC-4R in the presence of a MC-4R agonist, such as alpha-MSH.
HEK293 cells stably expressing human MC-4R receptors were grown in high glucose Dulbecco's Modified Eagle Medium (DMEM) with 4500 mg glucose/L, L-glutamine, NaHCO3, pyrdoxin HCl, 10 mM HEPES (pH 7.4), 0.1 mM NEAA (non-essential amino acid medium) (GIBCO Cat#11140-050), 10% fetal bovine serum and 700 μg/mL G418. Cells were grown in T-225 flasks at 37° C. with CO2 and humidity control.
On the day of assay, cells were washed twice with phosphate buffered saline without calcium and magnesium (PBS) and incubated with 10 mL PBS until the cells were detached from the flask. The detached cells were centrifuged at 240 g for 5 min. The cell pellet was re-suspended in assay buffer (Earle's balanced salt solution (Sigma E3024) supplemented with 10 mM HEPES, pH 7.4, 0.5 mM IBMX and protease inhibitor cocktail (Roche, 1 complete tablet/75 mL buffer)).
The inhibitory or enhancement effect of compounds on AgRP activity was measured in a multi-component assay containing testing compounds, AgRP83-132 (human, Phoenix Pharma, cat no. 003-53), cells expressing MC-4R, and αMSH (Bachem, cat no. H-1075). Test compounds, AgRP and αMSH were diluted with assay buffer. Test compounds and AgRP were mixed to 4 times of the final concentration and incubated at room temperature for 30 min. Five μL of testing compound/AgRP solution followed with 10 μL of cells (20,000 cells/well) were added to each well of a 384-well reaction plate before 5 μL of αMSH was added. Cells were stimulated with αMSH for an additional 30 min at 37° C.
Stimulation of cells was stopped by adding a lysis buffer and cells were lysed. The intracellular concentration of cAMP may be measured by various techniques known to one of skill in the art including, but not limited to, fluorescence polarization (FP) and time-resolved fluorescence (TRF).
The inhibition was shown by an increase in MC-4R mediated cAMP production.

[2] = Stability in Liver Microsomes (monkey); format: in vitro ADME; details: 1 μM, 0.5 mg protein/mL, NADPH, 60 minutes, 37° C., pH 7.4
Description: as §1

[3] = Stability in Liver Microsomes (rat); format: in vitro ADME; details: 1 μM, 0.5 mg protein/mL, NADPH, 60 minutes, 37° C., pH 7.4
Description: as §1

[4] = Stability in Liver Microsomes (dog); format: in vitro ADME; details: 1 μM, 0.5 mg protein/mL, NADPH, 60 minutes, 37° C., pH 7.4
Description: as §1

[5] = Stability in Liver Microsomes (human); format: in vitro ADME; details: 1 μM, 0.5 mg protein/mL, NADPH, 60 minutes, 37° C., pH 7.4
Description: as §1

[6] = Pharmacokinetic screening in rats (plasma and brain); details: rat, 5 mg/kg PO; for concentration at 2 h: male, Sprague Dawley, po, 5 mg/kg, 2 hour time point; for Brain - 24 hours AUC (h * ng/g): 24 hour study
Description: Pharmacokinetic screening in rats was performed on various compounds to measure brain to plasma ratio at 2 hour time point. […] The parameters for the pharmacokinetic protocol were as follows.
Amount of compound: 5 mg/kg
Species: Rat; Strain: Sprague Dawley; Sex: Male
Diet Status: Overnight fasting
Number of Animals (n) for each time point: 2
Formulation: 0.1% CMC, 0.25% Tween 80 in distilled water
Each formulation was administered once by oral gavage using a gavage needle (18G-3, BrainTree Scientific, INC, USA) attached to a syringe. The dose volume was 5 mL/kg for all animals. The actual volume administered to each animal was calculated and adjusted based on the most recent body weight.
Blood samples (approximately 300 μL whole blood) was collected from each animal via tail vein except for terminal blood samples. Terminal blood samples were collected via cardiac puncture. All samples were collected into tubes containing lithium heparin (Multivette 600 LH-Gel, Sarstedt, Newton, N.C., USA). Following collection, the tubes were placed in refrigerator (maximum 30 minutes) or until centrifugation under refrigeration (at 2 to 8° C.) at 5000 g for 7 minutes. Each harvested plasma sample was then transferred into 1.2 mL polypropylene tubes, on the 96-Well Plate according to the 96-Well Plate plasma sample map and kept in freezer. Plasma samples were then analyzed for test substances.
Brain samples were collected immediately after the rats were euthanised at designated time points. Brain samples were rinsed with saline, blotted dry, and weighed. Brain samples were placed into individual containers and kept in freezer (−20° C.). Brain samples were then analyzed for test articles.
After analysis, all the plasma results were reported as ng/mL and brain sample results are reported as ng/g.

[7] = read-out: Average EC50 (nM) in Biological Assay
[8] = plasma, Plasma - 2 hours (ng/mL)
[9] = Average EC50 (nM) in Biological Assay

SMILES | EC50 (human MC-4R; [7]) [nM] | concentration at 2 h ([6]; brain, Brain - 2 hours (ng/g)) [ng/g] | concentration at 2 h [6, 8] [ng/mL] | further results
CCCC1CCC(c2csc(N(CCC(=O)O)Cc3ccc(C)s3)n2)CC1 (stereo not shown) [Example 21, 3-{(5-Methyl-thiophen-2-ylmethyl)-[4-(4-propyl-cyclohexyl)-thiazol-2-yl]-amino}-propionic acid] | 372 |  |  | Stability in Liver Microsomes (% remaining after 1 hour incubation) Mouse [1]: 86%; Stability in Liver Microsomes (% remaining after 1 hour incubation) Monkey [2]: 47%; Stability in Liver Microsomes (% remaining after 1 hour incubation) Rat [3]: 66%; Stability in Liver Microsomes (% remaining after 1 hour incubation) Dog [4]: 78%; Stability in Liver Microsomes (% remaining after 1 hour incubation) Human [5]: 84%
Cc1ccc(CN(CCC(=O)O)c2nc(C3(CC(C)C)CCCC3)cs2)s1 [Example 42, 3-[[4-(1-Isobutyl-cyclopentyl)-thiazol-2-yl]-(5-methyl-thiophen-2-ylmethyl)-amino]-propionic acid] | 116 | 42 | 50 | 
O=C([O-])CCN(Cc1cccs1)c1nc(C2CCC(c3ccccc3)CC2)cs1.[Na+] (stereo not drawn) [Reference Compound E, Sodium 3-[[4-(trans-4-phenyl-cyclohexyl)-thiazol-2-yl]-(5-thiophen-2-ylmethyl)-amino]-propionate, reference compound] |  |  |  | Stability in Liver Microsomes (% remaining after 1 hour incubation) Mouse [1]: 51%; Stability in Liver Microsomes (% remaining after 1 hour incubation) Monkey [2]: 38%; Stability in Liver Microsomes (% remaining after 1 hour incubation) Rat [3]: 52%; Stability in Liver Microsomes (% remaining after 1 hour incubation) Dog [4]: 50%; Stability in Liver Microsomes (% remaining after 1 hour incubation) Human [5]: 60%
Cc1ccc(CN(CCC(=O)O)c2nc(C3(C)CCC(C(C)C)CC3)cs2)s1 (stereo not shown) [Example 48, Sodium; 3-[[4-(4-isopropyl-1-methyl-cyclohexyl)-thiazol-2-yl]-(5-methyl-thiophen-2-ylmethyl)-amino]-propionate] | 73 | 251 | 486 | 
CCc1ccc(CN(CCC(=O)O)c2nc(C3CC4CCCCC4C3)cs2)s1 (stereo not shown) [Example 58, 3-{(5-Ethyl-thiophen-2-ylmethyl)-[4-(octahydro-inden-2-yl)-thiazol-2-yl]-amino}-propionic acid] | 94 | 720 | 1330 | 
CCc1ccc(CN(CCC(=O)O)c2nc(C3CCCCC3)cs2)s1 [Example 2, 3-[(4-cyclohexyl-thiazol-2-yl)-(5-ethyl-thiophen-2-ylmethyl)-amino]-propionic acid] | 135 | 80 | 261 | 
Cc1ccc(CN(CCC(=O)[O-])c2nc(C3(c4ccccc4)CCCCC3)cs2)s1.[Na+] [Example 6, Sodium; 3-{(5-methyl-thiophen-2-ylmethyl)-[4-(1-phenyl-cyclohexyl)-thiazol-2-yl]-amino}-propionate] | 250 | 248 | 445 | Brain - 24 hours AUC (h * ng/g) [6]: + (values less than 5,000 h*ng/g)
CCc1ccc(CN(CCC(=O)O)c2nc(CC3CCCC3)cs2)s1 [Example 4, 3-[(4-Cyclopentylmethyl-thiazol-2-yl)-(5-ethyl-thiophen-2-ylmethyl)-amino]-propionic acid] | 324 | 98 | 590 | 
CCc1ccc(CN(CCC(=O)[O-])c2nc(C3(C)CCC(C)CC3)cs2)s1.[Na+] (stereo not shown) [Example 47, Sodium; 3-[[4-(1,4-dimethyl-cyclohexyl)-thiazol-2-yl]-(5-ethyl-thiophen-2-ylmethyl)-amino]-propionate] | 58 | 886 | 2090 | Brain - 24 hours AUC (h * ng/g) [6]: + (values less than 5,000 h*ng/g)
CCc1ccc(CN(CCC(=O)O)c2nc(CC3CCCCC3)cs2)s1 [Example 3, 3-[(4-Cyclohexylmethyl-thiazol-2-yl)-(5-ethyl-thiophen-2-ylmethyl)-amino]-propionic acid] | 246 | 691 | 2650 | 
CCc1ccc(CN(CCC(=O)[O-])c2nc(-c3ccc(N4CCCC4)cc3)cs2)s1.[Na+] [Reference Compound F, reference compound] |  |  |  | Stability in Liver Microsomes (% remaining after 1 hour incubation) Mouse [1]: 30%; Stability in Liver Microsomes (% remaining after 1 hour incubation) Monkey [2]: 5%; Stability in Liver Microsomes (% remaining after 1 hour incubation) Rat [3]: 27%; Stability in Liver Microsomes (% remaining after 1 hour incubation) Dog [4]: 45%; Stability in Liver Microsomes (% remaining after 1 hour incubation) Human [5]: 40%
CCc1ccc(CN(CCC(=O)O)c2nc(C3CC4CCC3C4)cs2)s1 (stereo not shown) [Example 1, Sodium; 3-[(4-bicyclo[2.2.1]hept-2-yl-thiazol-2-yl)-(5-ethyl-thiophen-2-ylmethyl)-amino]-propionate] | 126 |  |  | 
CC(C)(C)[C@H]1CC[C@H](c2csc(N(CCC(=O)O)Cc3cccs3)n2)CC1 [Reference Compound D, Sodium 3-[[4-(trans-4-tert-butyl-cyclohexyl)-thiazol-2-yl]-(thiophen-2-ylmethyl)-amino]-propionate, reference compound] |  |  |  | Stability in Liver Microsomes (% remaining after 1 hour incubation) Mouse [1]: 79%; Stability in Liver Microsomes (% remaining after 1 hour incubation) Monkey [2]: 76%; Stability in Liver Microsomes (% remaining after 1 hour incubation) Rat [3]: 26%; Stability in Liver Microsomes (% remaining after 1 hour incubation) Dog [4]: 47%; Stability in Liver Microsomes (% remaining after 1 hour incubation) Human [5]: 51%
CCc1ccc(CN(CCC(=O)O)c2nc(C3CCC(OC)CC3)cs2)s1 (stereo not shown) [Example 33, 3-{(5-Ethyl-thiophen-2-ylmethyl)-[4-(4-methoxy-cyclohexyl)-thiazol-2-yl]-amino}-propionic acid] | 1230 |  |  | 
CCc1ccc(CN(CCC(=O)O)c2nc(C3Cc4ccccc4C3)cs2)s1 [Example 11, 3-[(5-Ethyl-thiophen-2-ylmethyl)-(4-indan-2-yl-thiazol-2-yl)-amino]-propionic acid] | 252 |  |  | 
CCc1ccc(CN(CCC(=O)O)c2nc(C3CCC(C(C)(C)C)CC3)cs2)s1 (stereo not shown) [Example 28, 3-[[4-(4-tert-Butyl-cyclohexyl)-thiazol-2-yl]-(5-ethyl-thiophen-2-ylmethyl)-amino]-propionic acid] | 171 |  |  | 
CCc1ccc(CN(CCC(=O)O)c2nc(C3CCC(CC)CC3)cs2)s1 (stereo not shown) [Example 20, 3-[[4-(4-Ethyl-cyclohexyl)-thiazol-2-yl]-(5-ethyl-thiophen-2-ylmethyl)-amino]-propionic acid] |  |  |  | EC50 (human MC-4R; [9]): 389 nM
Cc1ccc(CN(CCC(=O)O)c2nc(C3CCC4(CCCCC4)CC3)cs2)s1 [Example 63, 3-[(5-methyl-thiophen-2-ylmethyl)-(4-spiro[5.5]undec-3-yl-thiazol-2-yl)-amino]-propionic acid] | 283 |  |  | 
CC(C)C1CCC(c2csc(N(CCC(=O)O)Cc3ccc(S(C)(=O)=O)s3)n2)CC1 (stereo not shown) [Example 37, 3-[[4-(4-Isopropyl-cyclohexyl)-thiazol-2-yl]-(5-methanesulfonyl-thiophen-2-ylmethyl)-amino]-propionic acid] |  |  |  | EC50 (human MC-4R; [9]): 524 nM
CCc1ccc(CN(CCC(=O)O)c2nc(C3CCC(C)(C)CC3)cs2)s1 [Example 54, 3-[[4-(4,4-Dimethyl-cyclohexyl)-thiazol-2-yl]-(5-ethyl-thiophen-2-ylmethyl)-amino]-propionic acid] | 36 | 2980 | 7710 | Brain - 24 hours AUC (h * ng/g) [6]: ++++ (values above 20,000 h*ng/g)

Source: patent US8563742B2, “Substituted aminothiazole derivatives, pharmaceutical compositions, and methods of use” (High Point Pharmaceuticals, LLC, priority 2008, dated 2013)
